Laboratory results as given in patent US20250018046A1, “COMPOUNDS FOR TARGETING DEGRADATION OF IRAK4 PROTEINS” (BIOGEN MA INC, priority 2021, published 2025).

Each compound was assayed against T1, IRAK4 (Homo sapiens, UniProt Q9NWZ3) (assay: IRAK4 degradation assay using the HiBiT Method). Settings: 293T cells expressing HiBiT-tagged IRAK4; 6-hour incubation; Nano-Glo HiBiT Lytic Assay luminescence.
T1 construct: knocking-in a HiBiT fusion tag into the C-terminal of the IRAK4 gene in 293T cells; host or cells: 293T cells, knock-in of HiBiT at the endogenous IRAK4 locus
T1 sequence (Q9NWZ3 1-460): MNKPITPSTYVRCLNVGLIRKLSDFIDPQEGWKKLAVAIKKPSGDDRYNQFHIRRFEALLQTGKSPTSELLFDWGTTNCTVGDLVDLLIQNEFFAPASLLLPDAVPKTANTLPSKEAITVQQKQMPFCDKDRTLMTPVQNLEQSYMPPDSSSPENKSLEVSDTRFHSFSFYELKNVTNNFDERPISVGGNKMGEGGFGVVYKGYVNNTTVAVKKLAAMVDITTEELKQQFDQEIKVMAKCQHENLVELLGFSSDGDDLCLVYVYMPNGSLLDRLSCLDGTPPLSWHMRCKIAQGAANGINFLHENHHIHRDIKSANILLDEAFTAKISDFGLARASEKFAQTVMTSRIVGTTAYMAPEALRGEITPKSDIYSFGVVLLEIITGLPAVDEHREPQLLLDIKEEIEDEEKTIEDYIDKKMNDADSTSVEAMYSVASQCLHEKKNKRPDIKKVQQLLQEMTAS
Assay type: cell-based
Protocol: Selected compounds were tested in an IRAK4 degradation assay using the HiBiT Method.
Phenol red-free Dulbecco's modified Eagle medium (DMEM) and fetal bovine serum (FBS) were purchased from Gibco (Grand Island, NY, USA). The Nano-Glo© HiBiT Lytic Assay System was purchased from Promega (Madison, WI, USA). Cell culture flasks and 384-well microplates were acquired from VWR (Radnor, PA, USA). The 293T cell line was engineered by knocking-in a HiBiT fusion tag into the C-terminal of the IRAK4 gene in 293T cells (Synthego, Redwood City, CA, USA).
IRAK4 degradation was measured via the quantification of luminescent signals using the Nano-Glo© HiBiT Lytic Assay kit. Test compounds were added to 384-well plates in duplicate using an 11-point half-log dilution series, with the highest dose set at 10 mM. 293T cells expressing HiBiT-tagged IRAK4 were then added into 384-well plates at a cell density of 10,000 cells per well. The plates were kept at 37° C. with 5% CO2 for 6 hours. Cells that were treated only with DMSO served as the negative control; wells that contained only assay media served as the background control. After the 6-hour incubation, Nano-Glo® HiBiT Lytic Assay reagents were added to the cells. Luminescence was acquired using an EnVision® Multilabel Reader (PerkinElmer, Santa Clara, CA, USA).

Structure (SMILES)	DC50 [nM]
CC(C)Oc1cc2nc([C@H]3CC[C@H](CN(C)C4CCN(c5ccc(C6CCC(=O)NC6=O)cc5)CC4)CC3)cn2cc1NC(=O)c1cccc(C(F)(F)F)n1 (stereo partly drawn) [Example 40, N-[2-[4-[[[1-[4-(2,6-dioxo-3-piperidyl)phenyl]-4-piperidyl]-methyl-amino]methyl]cyclohexyl]-7-isopropoxy-imidazo[1,2-a]pyridin-6-yl]-6-(trifluoromethyl)pyridine-2-carboxamide]	100 to 500
CC(C)Oc1cc2nc([C@H]3CC[C@H](CN(C)C4CCN(c5cccc(NC6CCC(=O)NC6=O)c5)CC4)CC3)cn2cc1NC(=O)c1cccc(C(F)(F)F)n1 (stereo partly drawn) [Example 44, N-[2-[4-[[[1-[3-[(2,6-dioxo-3-piperidyl)amino]phenyl]-4-piperidyl]-methyl-amino]methyl]cyclohexyl]-7-isopropoxy-imidazo[1,2-a]pyridin-6-yl]-6-(trifluoromethyl) pyridine-2-carboxamide]	100 to 500
CC(C)Oc1cc2nn(C3CCN(CC(=O)N4CCC(c5ccc(NC6CCC(=O)NC6=O)cc5)CC4)CC3)cc2cc1NC(=O)c1cccc(C(F)(F)F)n1 (stereo not drawn) [Example 49, N-(2-(1-(2-(4-(4-((2,6-dioxopiperidin-3-yl)amino)phenyl)piperidin-1-yl)-2-oxoethyl)piperidin-4-yl)-6-isopropoxy-2H-indazol-5-yl)-6-(trifluoromethyl) picolinamide]	10 to 100
CC(C)Oc1cc2nn(C3CCN(CC(=O)N4CCC(c5ccc(NC6CCC(=O)NC6=O)cc5F)CC4)CC3)cc2cc1NC(=O)c1cccc(C(F)(F)F)n1 (stereo not drawn) [Example 50, N-[2-[1-[2-[4-[4-[(2,6-dioxo-3-piperidyl)amino]-2-fluoro-phenyl]-1-piperidyl]-2-oxo-ethyl]-4-piperidyl]-6-isopropoxy-indazol-5-yl]-6-(trifluoromethyl)pyridine-2-carboxamide]	10 to 100
CC(C)Oc1cc2nn(C3CCN(C(=O)CN4CCC(c5ccc(NC6CCC(=O)NC6=O)cc5)CC4)CC3)cc2cc1NC(=O)c1cccc(C(F)(F)F)n1 (stereo not drawn) [Example 51, N-[2-[1-[2-[4-[4-[(2,6-dioxo-3-piperidyl)amino]phenyl]-1-piperidyl]acetyl]-4-piperidyl]-6-isopropoxy-indazol-5-yl]-6-(trifluoromethyl)pyridine-2-carboxamide]	10 to 100
CC(C)Oc1cc2nn(C3CCN(C(=O)CN4CCC(c5ccc(NC6CCC(=O)NC6=O)cc5F)CC4)CC3)cc2cc1NC(=O)c1cccc(C(F)(F)F)n1 (stereo not drawn) [Example 52, N-(2-(1-(2-(4-(4-((2,6-dioxopiperidin-3-yl)amino)-2-fluorophenyl)piperidin-1-yl)acetyl)piperidin-4-yl)-6-isopropoxy-2H-indazol-5-yl)-6-(trifluoromethyl)picolinamide]	10 to 100
CC(C)Oc1cc2nc(C3CCN(CC(=O)N4CCC(c5ccc(NC6CCC(=O)NC6=O)cc5)CC4)CC3)cn2cc1NC(=O)c1ccncn1 (stereo not drawn) [Example 53, N-[2-[1-[2-[4-[4-[(2,6-dioxo-3-piperidyl)amino]phenyl]-1-piperidyl]-2-oxo-ethyl]-4-piperidyl]-7-isopropoxy-imidazo[1,2-a]pyridin-6-yl]pyrimidine-4-carboxamide]	100 to 500
CC(C)Oc1cc2nc(C3CCN(CC(=O)N4CCC(c5ccc(NC6CCC(=O)NC6=O)cc5)CC4)CC3)cn2cc1NC(=O)c1cccc(C(F)(F)F)c1 (stereo not drawn) [Example 54, N-[2-[1-[2-[4-[4-[(2,6-dioxo-3-piperidyl)amino]phenyl]-1-piperidyl]-2-oxo-ethyl]-4-piperidyl]-7-isopropoxy-imidazo[1,2-a]pyridin-6-yl]-3-(trifluoromethyl)benzamide]	100 to 500
CC(C)Oc1cc2nc(C3CCN(CC(=O)N4CCC(c5ccc(NC6CCC(=O)NC6=O)cc5)CC4)CC3)cn2cc1NC(=O)c1ccccn1 (stereo not drawn) [Example 55, N-[2-[1-[2-[4-[4-[(2,6-dioxo-3-piperidyl)amino]phenyl]-1-piperidyl]-2-oxo-ethyl]-4-piperidyl]-7-isopropoxy-imidazo[1,2-a]pyridin-6-yl]pyridine-2-carboxamide]	10 to 100

The remaining lines, values ahead:

DC50 [nM]	Structure (SMILES)
10 to 100	CC(C)Oc1cc2nc([C@H]3CC[C@H](CN4CCC(c5cccc6c5n(C)c(=O)n6C5CCC(=O)NC5=O)CC4)CC3)cn2cc1NC(=O)c1cccc(C(F)(F)F)n1 (stereo partly drawn) [Example 37, N-[2-[4-[[4-[1-(2,6-dioxo-3-piperidyl)-3-methyl-2-oxo-benzimidazol-4-yl]-1-piperidyl]methyl]cyclohexyl]-7-isopropoxy-imidazo[1,2-a]pyridin-6-yl]-6-(trifluoromethyl)pyridine-2-carboxamide]
100 to 500	CC(C)Oc1cc2nc([C@H]3CC[C@H](CN4CCC(c5cccc(NC6CCC(=O)NC6=O)c5F)CC4)CC3)cn2cc1NC(=O)c1cccc(C(F)(F)F)n1 (stereo partly drawn) [Example 38, N-[2-[4-[[4-[3-[(2,6-dioxo-3-piperidyl)amino]-2-fluoro-phenyl]-1-piperidyl]methyl]cyclohexyl]-7-isopropoxy-imidazo[1,2-a]pyridin-6-yl]-6-(trifluoromethyl)pyridine-2-carboxamide]
100 to 500	CC(C)Oc1cc2nc([C@H]3CC[C@H](CN4CCC(c5cccc(NC6CCC(=O)NC6=O)c5)CC4)CC3)cn2cc1NC(=O)c1cccc(C(F)(F)F)n1 (stereo partly drawn) [Example 39, N-[2-[4-[[4-[3-[(2,6-dioxo-3-piperidyl)amino]phenyl]-1-piperidyl]methyl]cyclohexyl]-7-isopropoxy-imidazo[1,2-a]pyridin-6-yl]-6-(trifluoromethyl)pyridine-2-carboxamide]
100 to 500	CC(C)Oc1cc2nc([C@H]3CC[C@H](CN4CCC(c5ccc(C6CCC(=O)NC6=O)cc5F)CC4)CC3)cn2cc1NC(=O)c1cccc(C(F)(F)F)n1 (stereo partly drawn) [Example 41, N-[2-[4-[[4-[4-(2,6-dioxo-3-piperidyl)-2-fluoro-phenyl]-1-piperidyl]methyl]cyclohexyl]-7-isopropoxy-imidazo[1,2-a]pyridin-6-yl]-6-(trifluoromethyl)pyridine-2-carboxamide]
100 to 500	CC(C)Oc1cc2nc([C@H]3CC[C@H](CN(C)C4CCN(c5cccc6c5n(C)c(=O)n6C5CCC(=O)NC5=O)CC4)CC3)cn2cc1NC(=O)c1cccc(C(F)(F)F)n1 (stereo partly drawn) [Example 42, N-[2-[4-[[[1-[1-(2,6-dioxo-3-piperidyl)-3-methyl-2-oxo-benzimidazol-4-yl]-4-piperidyl]-methyl-amino]methyl]cyclohexyl]-7-isopropoxy-imidazo[1,2-a]pyridin-6-yl]-6-(trifluoromethyl)pyridine-2-carboxamide]
100 to 500	CC(C)Oc1cc2nc([C@H]3CC[C@H](CN(C)C4CCN(c5cccc(C6CCC(=O)NC6=O)c5)CC4)CC3)cn2cc1NC(=O)c1cccc(C(F)(F)F)n1 (stereo partly drawn) [Example 43, N-[2-[4-[[[1-[3-(2,6-dioxo-3-piperidyl)phenyl]-4-piperidyl]-methyl-amino]methyl]cyclohexyl]-7-isopropoxy-imidazo[1,2-a]pyridin-6-yl]-6-(trifluoromethyl)pyridine-2-carboxamide]
500 to 1000	CC(C)Oc1cc2nc([C@H]3CC[C@H](CN(C)C4CCN(c5ccc6c(c5)n(C)c(=O)n6C5CCC(=O)NC5=O)CC4)CC3)cn2cc1NC(=O)c1cccc(C(F)(F)F)n1 (stereo partly drawn) [Example 45, N-[2-[4-[[[1-[1-(2,6-dioxo-3-piperidyl)-3-methyl-2-oxo-benzimidazol-5-yl]-4-piperidyl]-methyl-amino]methyl]cyclohexyl]-7-isopropoxy-imidazo[1,2-a]pyridin-6-yl]-6-(trifluoromethyl)pyridine-2-carboxamide]
> 1000	CC(C)Oc1cc2nc([C@H]3CC[C@H](CN(C)C4CCN(Cc5cccc(NC6CCC(=O)NC6=O)c5)CC4)CC3)cn2cc1NC(=O)c1cccc(C(F)(F)F)n1 (stereo partly drawn) [Example 46, N-[2-[4-[[[1-[[3-[(2,6-dioxo-3-piperidyl)amino]phenyl]methyl]-4-piperidyl]-methyl-amino]methyl]cyclohexyl]-7-isopropoxy-imidazo[1,2-a]pyridin-6-yl]-6-(trifluoromethyl) pyridine-2-carboxamide]
100 to 500	CC(C)Oc1cc2nc(C3CCC(CN4CCC(c5ccc6c(c5)n(C)c(=O)n6C5CCC(=O)NC5=O)CC4)CC3)cn2cc1NC(=O)c1cccc(C(F)(F)F)n1 (stereo not drawn) [Example 47, N-[2-[4-[[4-[1-(2,6-dioxo-3-piperidyl)-3-methyl-2-oxo-benzimidazol-5-yl]-1-piperidyl]methyl]cyclohexyl]-7-isopropoxy-imidazo[1,2-a]pyridin-6-yl]-6-(trifluoromethyl)pyridine-2-carboxamide]
